Reference: patent US20120258482A1, “PCNA […]” (INDIANA UNIVERSITY RESEARCH AND TECHNOLOGY CORPORATION, priority 2009, published 2012)

Key:
Type in all cases: cell-based, human
[1] = system: p21WAF1/CIP1 in MCF7 cells; assay: Immunoblot with anti-p21WAF1 antibodies after DOX treatment; conditions: 5 μM DOX, 4 h after treatment
[2] = system: PCNA isoform in MCF7 cells (p53 wild-type); assay: 2D-PAGE anti-PCNA immunoblot after DOX exposure, MCF7; conditions: high-dose (5 μM) DOX
Procedure: (§1) FIG. 7A is a Western blot analysis of p53 wild-type (MCF7) and p53-mutant (MDA-MB-468) breast carcinoma cell lines exposed to 5 μM DOX for the indicated times. Cell extracts (200 μg) were resolved by 2D-PAGE and immunoblotted with anti-PCNA antibodies. In FIG. 7B extracts from MCF7 cells (50 μg) treated with 5 μM DOX were separated by 12% SDS-PAGE and immunoblotted with anti-p21WAF1 antibodies. FIG. 7C is a Western blot analysis of glutathione-immobilized GST-p21 and GST-PIP (a.a. 139-160) fusion proteins incubated with untreated MCF7 cell extracts for 2 h at 4° C. and the pull-down fractions were resolved by 2D-PAGE and Western blotted for PCNA. PCNA isoforms were isolated from MCF7 extracts by incubation with PIP-affinity beads for ˜2 h and analyzed by 2D-PAGE using pH 4-7 IPG strips. Colloidal Coomassie stained spots (See FIG. 7D) were excised from the gel, trypsin digested, and sequenced by LC-MS/MS.
(§2) 2D-PAGE and mass spectrometry. Isoelectric focusing was performed using IPG strips and an IEF cell (BioRad) as previously described (Hoelz, D. J. et al. Proteomics 6, 4808-4816, 2006). […] Anti-PCNA (PC10) antibodies were obtained from Santa Cruz Biotech and anti-WAF1 (DF10) were from EMD Biosciences.
(§3) Although the description of Arm1 identifies a novel posttranslational mechanism in eukaryotic cells, its biological significance was still unclear. […]

[3] = system: PCNA isoform in MDA MB468 cells (p53-mutant); assay: 2D-PAGE anti-PCNA immunoblot after DOX exposure, MDA MB468; conditions: 5 μM DOX
Procedure: as §1, §2, §3

**Q.** For COc1cccc2c1C(=O)c1c(O)c3c(c(O)c1C2=O)C[C@@](O)(C(=O)CO)C[C@@H]3O[C@H]1C[C@H](N)[C@H](O)[C@H](C)O1 [DOX, doxorubicin], which “induction of p21 expression” value [1] is on record?
**A.** The value was “over 27 fold”.

**Q.** And the “basic-shifted (methyl esterified) PCNA isoform, pI ~5.6” value [2]?
**A.** The value was “induced”.

**Q.** And the “basic-shifted (methyl esterified) PCNA isoform” value [3]?
**A.** Its value is “unable to identify the isoform”.
